Several values for one entry are separate records, joined by “and”; a condition that tells them apart may be missing. Equal entries are not always repeated.
How the values were obtained:
[1] = rats, cited from earlier work
[2] = Phase I pharmacokinetics of CPT-11, SN-38 and SN-38G in plasma/urine after 90 min iv infusion; conditions: for "Biliary ratio" (median): AUC SN-38/SN-38G
Protocol: All patients met the standard laboratory criteria including criteria for adequate organ function. Informed, written consent was obtained from all patients prior to their first dose of CPT-11. The drug was given in 500 cc normal saline by intravenous infusion over 90 minutes on a weekly basis for four doses in a sixweek cycle. […] A second cycle was given with the same dose and schedule used during cycle 1. […] Patients who experienced dose limiting neutropenia were eligible to receive G-CSF at 5 μg/kg/day according to the criteria defined below.
To determine drug and metabolite levels, heparinized blood samples obtained on the first cycle of therapy, were centrifuged and the plasma was stored at -70° C. until analysis. CPT (camptothecin, 1 μg/ml, obtained from the National Cancer Institute, Bethesda, Md.) was used as an internal standard. One hundred μl of plasma was extracted with 2 ml of methanol, centrifuged at 2500×g for 10 min and the supernatant was evaporated to dryness. Reconstitution was done with 200 μl of methanol containing 0.1% 10M HCL (pH~2.0). For the estimation of SN-38G, plasma samples were extracted as described above. Prior to reconstitution, the samples were incubated with 1000 U of glucuronidase (Sigma Chemical Co., St. Louis, Mo.) for 2 hours at 37° C.
Analysis was done using a C18 column (μBondapak, 10 μm, 3.9×300 mm; Waters Associates, Milford, Mass.) preceded by a Novapak C18 guard column. […] Detection was monitored by a Hitachi F1050 Fluorescence detector (Hitachi Instruments Inc., Naperville, Ill.) with a λex at 375 nm and λem at 566 nm. […] SN-38G concentrations were determined as the increase in SN-38 concentrations following incubation with glucuronidase.
The plasma concentration-time data of CPT-11, SN-38 and SN-38G were analyzed by non-compartmental analysis using PCNONLIN (SCI, Lexington, Ky.). The area under the plasma concentration-time curve (AUC) from time zero (predose) to the time of the last quantifiable concentration (AUCt) was calculated by the trapezoidal rule. The AUC extrapolated to time infinity (AUCt →.infin.) was estimated by dividing the last quantifiable concentration by the terminal rate constant obtained by the log-linear regression of the terminal elimination phase. The AUC was the summation of AUCt and AUCt→.infin.. Clearance (CL) was estimated as the ratio of the dose and AUC.
The present study employed this principle to obtain an estimate of SN-38 excreted in the bile. Since glucuronidation is the major pathway of elimination of SN-38, the fraction of SN-38 not conjugated would be primarily excreted in the bile. The net biliary concentration of SN-38 would then be a resultant of its formation and elimination. This concentration was expressed as the "biliary ratio" which was the ratio of AUC of SN-38 to SN-38G. To control for individual variability in the amount of available drug, the ratio was multiplied by the AUC of CPT-11 to obtain a "biliary index" of SN-38.
The nonparametric Mann-Whitney test was employed to test for differences in pharmacokinetic outcomes between two patient groups, defined by the worst severity of diarrhea experienced in the first two cycles of CPT-11 treatment. Statistical tests were performed in the Number Cruncher Statistical System (Dr. Jerry Hintz, Kaysville, Utah). A two-sided significance level of less than or equal to 0.05 was considered statistically significant.

**Q.** For `CCc1c2c(nc3ccc(OC(=O)N4CCC(N5CCCCC5)CC4)cc13)-c1cc3c(c(=O)n1C2)COC(=O)[C@]3(O)CC` [CPT-11, 7-ethyl-10-[4-(1-piperidino)-1-piperidino)carbonyloxycamptot hecin], which “biliary radioactivity excreted over 24 h as” value ([1]; 24 h) is on record?
**A.** Its value is 55%.

**Q.** What about the “biliary radioactivity reabsorbed from the intestine” value [1] of the same compound?
**A.** Its value is “approximately 18%”.

**Q.** And the “"biliary index" (median)” value ([2]; 145 mg/m2, Grade 0-2 diarrhea, p=0.03)?
**A.** Its value is 2275 and 2276.

**Q.** And the “"biliary index" (median)” value ([2]; 145 mg/m2, Grade 3-4 diarrhea, p=0.03)?
**A.** The value was 4747.

**Q.** What about the “"Biliary ratio" (median)” value ([2]; 145 mg/m^2, Grade 0-2 diarrhea, n = 5) of the same compound?
**A.** The value was 0.27.

**Q.** And the “"biliary index" (median)” value ([2]; 145 mg/m^2, Grade 0-2 diarrhea, n = 5, p 0.03)?
**A.** The value was 2276 ng·h/mL.

**Q.** What about the “"Biliary ratio" (median)” value ([2]; 145 mg/m^2, Grade 3-4 diarrhea, n = 5) of the same compound?
**A.** Its value is 0.53.

**Q.** And the “"biliary index" (median)” value ([2]; 145 mg/m^2, Grade 3-4 diarrhea, n = 5, p 0.03)?
**A.** Its value is 4747 ng·h/mL.

**Q.** What about the “"biliary index"” value ([2]; 4 of 5 patients with grade 3-4 diarrhea, 145 mg/m^2) of the same compound?
**A.** Its value is “above 4000”.

**Q.** What about the “effect of pretreatment with G-CSF on pharmacokinetics” value ([2]; CPT-11 and its metabolites) of the same compound?
**A.** The value was “no effect”.

**Q.** What about the “"biliary index" (median)” value ([2]; all dose levels, grade 0-2 diarrhea, n=12, p=0.0004) of the same compound?
**A.** The value was 2228.

**Q.** And the “"biliary index" (median)” value ([2]; all dose levels, grade 3-4 diarrhea, n=9, p=0.0004)?
**A.** Its value is 5499.

**Q.** And the “increase of AUC from 100 to 175 mg/m^2” value ([2]; in vivo)?
**A.** Its value is 2.6 fold.

**Q.** And the “interpatient variability of AUC (percent coefficient of variation)” value ([2]; in vivo)?
**A.** The value was 17-57%.

**Q.** What about the “patients with grade 3-4 diarrhea having index estimates above 4000” value ([2]; in vivo) of the same compound?
**A.** Its value is “about 90%”.

**Q.** And the “"biliary index"” value ([2]; one patient, grade 3-4 diarrhea, c diff+)?
**A.** Its value is 3028.
